# Source: a melting point compilation (Tetko et al.; mined from patent text by program, amines drawn as free bases though some values may be those of a salt)
row,melting point [°C],SMILES
1,178 to 180,COc1cc2c(cc1C(F)(F)F)N(C(=O)Nc1cccc(-c3cnccc3C)c1)CC2
2,85 to 87,CC(O)Cn1ccc2ccc(F)c(Cl)c21 (racemic)
3,94 to 97,COC(=O)CCCc1cc2cc(Cl)ccc2n1S(=O)(=O)c1cccc2ccccc12
4,255 to 257,O=C(Nc1ccc(N2CCCC2)nc1)c1cc2cc(F)ccc2n1Cc1ccncc1
5,208 to 210,CN(C)CCCN=C1CC(c2ccc(Cl)c(Cl)c2)Cc2c1c(=O)c1cc(Cl)ccc1n2O (configuration not stated)
6,235 to 237,CC1Cc2c(N3CCCC3CO)c(F)cc3c(=O)c(C(=O)O)cn1c23 (configuration not stated)
7,187 to 189,Sc1nccn1Cc1ccc(Cl)cc1
8,92 to 95,O=c1oc(-c2c(F)cccc2Cl)nn1-c1ccccc1Cl
9,156,CC(C)c1ccc(N(Cc2ccc(O)cc2)C(=O)C2CCCc3ccccc32)cc1 (configuration not stated)
10,119 to 123,CCOC(=O)Nc1ccc2c3c(n(CCCN(C)C)c2c1)CCCCCC3
11,228 to 231,COC(=O)c1cnn(C)c1C(=O)Nc1ccn2nc(-c3cccnc3)nc2c1
12,136 to 137,COC1CCN(S(=O)(=O)c2ccc(S(N)(=O)=O)cc2C(F)(F)F)CC1
13,175,Cc1cccc(NC(=O)NCC(=O)N(CC(=O)N(C)c2ccccc2Cl)c2ccccc2)c1
14,188 to 190,CCN1c2ncccc2C(=O)Nc2c(C)cc(N3CCC(OC(C)=O)C3)nc21 (configuration not stated)
15,137 to 138,CC(C)n1nc(-c2ccc(OCC(N)=O)nc2-c2ccccc2)ccc1=O
16,138 to 142,CCOC(=O)c1cnc2c(NC(=O)c3c(Cl)cccc3Cl)cccc2c1COC(C)=O
17,102 to 103,C=C(C(=O)c1ccc(C(=O)OC)cc1)c1cc(OC)c(OC)c(-c2cccs2)c1
18,48 to 51,COc1cc2c(cc1O)C(C1(c3ccccc3Br)CCC1)N(C)CC2 (configuration not stated)
19,182 to 183,Nc1ccccc1NC(=O)c1cc2cccc(OCCO)c2o1
20,116,CN1C(=O)CC[C@]2(C)c3ccc(C(=O)c4ccccc4)cc3CC[C@@H]12
21,202,O=c1c(C2CC2)c(N2CCC(c3ccccc3)CC2)ccn1CC1CC1

row,melting point [°C],SMILES
1,127 to 129,COC(=O)Cc1ccc(C(=O)CN2CCN(c3ccncc3)CC2)cc1
2,> 220,Cc1cc(-c2cccc(N)n2)c(C)cc1OCCN1CCN(CCc2ccccc2)CC1
3,128 to 130,O=C(COc1ccc([N+](=O)[O-])c(F)c1)NCc1ccccc1
4,> 250,CCOC(=O)c1cccc(-c2cc3c(O)ncnc3[nH]2)c1
5,160,CC(=O)N1CCC(COC2c3ccccc3C(=O)N2c2ccc3ccc(Cl)nc3n2)CC1 (configuration not stated)
6,249 to 250,Cc1ccnc(Nc2nc(-c3ccccc3O)cs2)c1
7,112 to 114,COc1cccc(CNc2ncnc3c2sc2nc(N4CCSCC4)c4c(c23)CC(C)(C)CC4)c1OC
8,35,CCOC(=O)N(N)c1ccc(C)cc1
9,144,CC[C@@H](C[C@H](O)[C@H](CC1CCCCC1)NC(=O)[C@H](Cc1c[nH]cn1)NC[C@H](Cc1ccccc1)NC(=O)OC(C)(C)C)C(C)C
10,82 to 84,CON=C(C(=O)OC)c1cc(C)c(C)cc1COc1ccccc1C
11,158 to 164,OC1(c2ccc(Cl)cc2)CCCNC12CCCCC2 (configuration not stated)
12,130 to 133,CC(C)COC(=O)N1CCN(c2nc3cccccc-3n2)CC1
13,289 to 290,Cc1[nH]n(C2CCC2)c2nc(-c3ccncc3)nc(=O)c1-2
14,263 to 265,CC1COc2c(C3CC3)c(F)cc3c(=O)c(C(=O)O)cn1c23 (configuration not stated)
15,178,O=C(Oc1ccccc1)OC1C2=C(SCCS2)C(=O)N1c1ccc(Cl)cn1 (configuration not stated)
16,145 to 150,CN(C(=O)CN1C(=O)C(NC(=O)Nc2cccc(C#N)c2)N=C(CN2CCCCC2)c2ccccc21)c1ccccc1 (configuration not stated)
17,152 to 153,CC1CN(Cc2ccccc2)c2c3c(nc4cccc(c24)O1)CCCC3 (configuration not stated)
18,79 to 81,Cc1ccc(NCC2CCN(C(C)C3CC3)CC2)c(C(=O)Nc2ccc(Cl)cn2)c1 (configuration not stated)
19,145 to 147,COC1CCCC(C(=O)Nc2ccc(-n3nc(C(F)(F)F)cc3C(F)(F)F)cc2)C1 (configuration not stated)
20,247,CCNc1cc(Oc2ccc(NC(=O)NC3Cc4ccc(Br)cc4C3)cc2)ncn1 (configuration not stated)

# The remaining lines, values behind:
row,SMILES,melting point [°C]
1,COc1c(Br)ccc2s[nH]c(=O)c12,197 to 198
2,CC(C)c1ncc2cc(Cl)nc(Cl)n12,90 to 93
3,[N-]=[N+]=NC(c1ccccc1)C(O)c1ccccc1 (configuration not stated),59 to 60
4,O=C(O)c1cc2c3cc(Br)c(Br)cc3n(Cc3ccccc3)c2s1,269 to 273
5,CCC1(O)CSC(=S)N1c1cccc(C)n1 (configuration not stated),118
6,NNc1ccc2c(=O)[nH]ccc2c1,270
7,CCCn1c(=O)c2c(nc(C=Cc3ccc(C(=O)O)cc3OC)n2C)n(CCC)c1=O,285 to 286
8,CCCOc1ccccc1-c1nc2nnc(SC)nc2c(=O)[nH]1,195 to 197
9,Cc1cccc(C(=O)N(C(=O)c2cccc(C)c2)c2nc3ccccc3c(NCc3ccccc3)c2C#N)c1,234
10,Cn1c(=O)oc2c3ncccc3c(Cl)cc21,219 to 221
11,Cc1c(Cl)cnc(N)c1F,136 to 138
12,Cc1nn(-c2ccccn2)cc1CO,116 to 117
13,CSc1nc(=O)[nH]c(C)c1Br,244
14,O=C(O)CCC1(CCC(=O)O)CCC(=O)N1,162 to 164
15,Nc1ncc(-c2cccnc2)cc1[N+](=O)[O-],226 to 228
16,COc1cc2nc(N3CCN(c4nc5ncccc5o4)CC3)nc(N)c2cc1OC,> 250
17,O=C1CCN(Cc2ccc([N+](=O)[O-])cc2)C(=O)C1=C1SC=CS1,192 to 193
18,COc1cc(F)ccc1Nc1ccc2c(c1)OCc1cc([N+](=O)[O-])ccc1C2=O,222
19,O=C(O)CS(=O)(=O)Nc1ccc(F)cc1C(F)(F)F,120 to 121
20,NS(=O)(=O)Oc1ccc2ccccc2c1,114 to 115
21,Clc1ccc2oc(Cl)nc2c1,46 to 48

row,SMILES,melting point [°C]
1,CCCC(=O)c1c[nH]c2ccc(OC)cc2c1=O,252 to 254
2,O=C1NC(Cc2ccccc2)=C2OCOCOC2C(Cc2ccccc2)N1 (configuration not stated),125 to 130
3,CCCCOc1c(C=O)n(C)c(=O)c2cc(Cl)c(Cl)cc12,114 to 115
4,O=C(O)CC[C@H](NCC(O)C(O)C(O)C(O)CO)C(=O)O (some centres not stated),94
5,COc1ccc(S(C)(=O)=O)cn1,85 to 86.5
6,CC(C)[Si](C#Cc1c2ccccc2c2ccc3c(C#C[Si](C(C)C)(C(C)C)C(C)C)c4ccccc4c4ccc1c2c34)(C(C)C)C(C)C,318 to 321
7,Cc1ccc2cc(-c3ccc(F)cc3F)ccc2n1,86
8,NC(=O)NN=Cc1c(O)c(O)cc2ccccc12,210 to 215
9,CCOC(=O)CC1Nc2ccccc2CC(N)C1=O (configuration not stated),71 to 73
10,OCc1c(F)cc(O)cc1Cl,125 to 127
11,CC(C#N)c1coc2cc(I)ccc12 (configuration not stated),71 to 72
12,CCCCc1cc(NCc2ccc(-c3ccccc3C#N)cc2)n2nccc2n1,200 to 202
13,CC(=O)c1c(C)[nH]c(C(C)c2ccccc2)c1C (configuration not stated),146 to 148
14,CC(=O)C(=Cc1ccc([N+](=O)[O-])o1)C(C)=O,117 to 120
15,CN1CCC=C(c2cccc3[nH]ccc23)C1,175
16,CN1CCC(=O)N(c2ccccc2)c2cc(Cl)ccc21,143 to 144
17,CCOC(=O)c1c(O)c2cccnc2n(CC)c1=O,120 to 122
18,CN(C)C(=O)Nc1c(Cl)cc2c(c1Cl)C(c1ccccc1F)=NCC(=O)N2C,145 to 147
19,CC(C)(C)C(=O)n1c(=O)n(CCN2CCC(=C(c3ccc(F)cc3)c3ccc(F)cc3)CC2)c(=O)c2cscc21,69 to 72
20,COc1cc(OC)cc(C(=O)N2CCN(C(=O)C3=Cc4cc(OC)c(OC)cc4CC3)CC2)c1,166 to 167
21,O=CC=Cc1cnn(-c2c(Cl)cc(C(F)(F)F)cc2Cl)n1,68 to 69

row,SMILES,melting point [°C]
1,Nc1nc(N)c(N)c(OCC2CCCCC2)n1,154
2,COC(=O)c1c(F)cc(OCCNC(=O)C2Cc3ccccc3N2S(=O)(=O)c2ccc(-c3cccc(C(F)(F)F)c3)cc2)cc1F (configuration not stated),68 to 71
3,Nc1ncnc2c1ncn2Cc1nc2cccc(F)c2c(=O)n1-c1ccccc1Cl,159 to 172
4,CC(C)(CO)NS(=O)(=O)c1ccc(Cl)c(N)c1,108
5,NC(=O)N(O)CCOCc1ccoc1,99 to 101
6,O=c1[nH]nc(CCc2cc(F)c(C(F)(F)F)c(F)c2)cc1O,211 to 212
7,Nc1nc(N)nc(Cc2cc3ccccc3s2)n1,216 to 218
8,CC(=O)CC(=O)C=Cc1ccc2cc[nH]c2c1,138 to 142
9,Cc1nc2c([N+](=O)[O-])cc(Br)cc2n1C,193 to 195
10,CCOC(=O)C1CCC2(c3cc(OC)c(OC)cc3CCN2C(=O)CCN(C)C)C(C2c3cc(OC)c(OC)cc3CCN2CC)C1 (configuration not stated),154 to 156
11,CC(C)(C)c1ccc(-c2cc(C(=O)/C=C/c3ccc(C(=O)O)cc3)cc3c2C(C)(C)CCC3(C)C)cc1,241
12,Nc1cc(-c2cccnc2)ccc1S(N)(=O)=O,240 to 243
13,CNC(=O)N(C)C1c2ccccc2Oc2ccccc21,173 to 174
14,CC(=O)OCC1c2ccccc2-c2c1c1ccccc1c1ccccc21 (configuration not stated),135 to 136
15,CCCCCCCCCCCCCCCCNc1ccc(C(=O)N(C)C)cc1,70 to 72
16,Cc1oc(C=Cc2cccc(C(F)(F)F)c2)nc1CC(=O)O,157 to 158
17,Oc1cc2c(cc1CNc1ccc(F)cc1F)OCC2,119 to 121
18,O=C(O)CN(CCN(CC(=O)O)C(Cc1ccccc1)C(=O)O)CCN(CC(=O)O)C(Cc1ccccc1)C(=O)O (configuration not stated),111 to 115
19,c1cnc(SCc2nc3ccccc3[nH]2)nc1,154 to 155
